US20230133580A1, “MENTHOL-CONTAINING COMPOSITION” (SUNSHO PHARMACEUTICAL CO., LTD., priority 2020, published 2023)
Structures can show the parent of a compound that is named as a salt.

What was measured:
[1] = l-Menthol dissolution test; type: physicochemical; settings: for Dissolution: stored at 20° C.
Method: The solution was stored at 20° C. and evaluated based on the time during which the solution was maintained in a liquid state without solidifying.
A sample that solidified before being cooled down to 20° C. [e.g., during the process of cooling down to a temperature below the melting point of l-menthol (generally 42 to 45° C.)] or immediately (e.g., within 30 minutes) after being stored at 20° C. was rated D. A sample that was maintained as a solution for a while (e.g., more than 30 minutes) but solidified in less than 24 hours was rated C.

[2] = Encapsulation test C (interfacial tension against purified water); type: physicochemical; settings: for interfacial tension: against purified water
Method: The interfacial tension was measured with the force tensiometer SIGMA 702 (KSV Instruments LTD).

[3] = menthol concentration ranging 60 to 50 wt %
[4] = samples containing 80 to 50 wt % l-menthol
[5] = menthol concentration ranging 70 to 50 wt %

SMILES	Dissolution ([1]; l-Menthol 50, solvent 50 pbw)	Dissolution ([1]; l-Menthol 60, solvent 40 pbw)	Dissolution ([1]; l-Menthol 70, solvent 30 pbw)	ability to dissolve menthol (rating) [1, 3]	ability to dissolve menthol (rating) [1, 5]	further results
OCc1ccccc1 [Benzyl alcohol]						Dissolution ([1]; l-Menthol 80, solvent 20 pbw): A (A sample that did not solidify in 10 days or more was rated A)
CC(=O)OCCCCCCOC(C)=O [1,6-Diacetoxyhexane]	A (A sample that did not solidify in 10 days or more was rated A)	A (A sample that did not solidify in 10 days or more was rated A)	C (A sample that was maintained as a solution for a while (e.g., more than 30 minutes) but solidified in less than 24 hours was rated C)	A (A sample that did not solidify in 10 days or more was rated A)		
O=C(OCc1ccccc1)c1ccccc1 [Benzyl benzoate]	B (A sample that solidified in 24 hours or more but less than 10 days was rated B)	C (A sample that was maintained as a solution for a while (e.g., more than 30 minutes) but solidified in less than 24 hours was rated C)	C (A sample that was maintained as a solution for a while (e.g., more than 30 minutes) but solidified in less than 24 hours was rated C)			ability to dissolve menthol (rating) ([1]; menthol concentration of 50%): B (A sample that solidified in 24 hours or more but less than 10 days was rated B)
CCOC(=O)CC(=O)OCC [Diethyl malonate]	B (A sample that solidified in 24 hours or more but less than 10 days was rated B)	B (A sample that solidified in 24 hours or more but less than 10 days was rated B)	B (A sample that solidified in 24 hours or more but less than 10 days was rated B)			Dissolution ([1]; l-Menthol 80, solvent 20 pbw): B (A sample that solidified in 24 hours or more but less than 10 days was rated B); ability to dissolve menthol (rating) ([1]; regardless of the menthol concentration): B (A sample that solidified in 24 hours or more but less than 10 days was rated B); interfacial tension [2, 4]: ≥ 5 mN/m
CC(=O)OCCOC(C)=O [Ethylene glycol diacetate]	C (A sample that was maintained as a solution for a while (e.g., more than 30 minutes) but solidified in less than 24 hours was rated C)	C (A sample that was maintained as a solution for a while (e.g., more than 30 minutes) but solidified in less than 24 hours was rated C)	C (A sample that was maintained as a solution for a while (e.g., more than 30 minutes) but solidified in less than 24 hours was rated C)			
CCOC(=O)CC(O)(CC(=O)OCC)C(=O)OCC [Triethyl citrate]	C (A sample that was maintained as a solution for a while (e.g., more than 30 minutes) but solidified in less than 24 hours was rated C)	C (A sample that was maintained as a solution for a while (e.g., more than 30 minutes) but solidified in less than 24 hours was rated C)	C (A sample that was maintained as a solution for a while (e.g., more than 30 minutes) but solidified in less than 24 hours was rated C)			
CCNCCCCCCNCC [N,N′-diethyl-1,6-hexanediamine]	A (A sample that did not solidify in 10 days or more was rated A)	A (A sample that did not solidify in 10 days or more was rated A)	A (A sample that did not solidify in 10 days or more was rated A)		A (A sample that did not solidify in 10 days or more was rated A)	
CCOC(=O)CCC(=O)OCC [Diethyl succinate]	A (A sample that did not solidify in 10 days or more was rated A)	A (A sample that did not solidify in 10 days or more was rated A)	A (A sample that did not solidify in 10 days or more was rated A)		A or B	Dissolution ([1]; l-Menthol 80, solvent 20 pbw): C (A sample that was maintained as a solution for a while (e.g., more than 30 minutes) but solidified in less than 24 hours was rated C); interfacial tension [2, 4]: ≥ 5 mN/m; Interfacial tension rating ([2]; l-Menthol 50, solvent 50 pbw): A (a sample having an interfacial tension of 5 mN/m or more was rated A); Interfacial tension rating ([2]; l-Menthol 60, solvent 40 pbw): A (a sample having an interfacial tension of 5 mN/m or more was rated A); Interfacial tension rating ([2]; l-Menthol 70, solvent 30 pbw): A (a sample having an interfacial tension of 5 mN/m or more was rated A); Interfacial tension rating ([2]; l-Menthol 80, solvent 20 pbw): A (a sample having an interfacial tension of 5 mN/m or more was rated A)
CCCCOCCOCCOCCCC [Diethylene glycol dibutyl ether]	A (A sample that did not solidify in 10 days or more was rated A)	A (A sample that did not solidify in 10 days or more was rated A)	C (A sample that was maintained as a solution for a while (e.g., more than 30 minutes) but solidified in less than 24 hours was rated C)	A (A sample that did not solidify in 10 days or more was rated A)		
CCOCCOCC [1,2-Diethoxyethane]	A (A sample that did not solidify in 10 days or more was rated A)	A (A sample that did not solidify in 10 days or more was rated A)	A (A sample that did not solidify in 10 days or more was rated A)		A (A sample that did not solidify in 10 days or more was rated A)	
CCCCOCCOCCCC [Ethylene glycol dibutyl ether]	A (A sample that did not solidify in 10 days or more was rated A)	A (A sample that did not solidify in 10 days or more was rated A)	A (A sample that did not solidify in 10 days or more was rated A)		A (A sample that did not solidify in 10 days or more was rated A)	
CCCCCCCCCCCC(=O)OCC [Ethyl laurate]	A (A sample that did not solidify in 10 days or more was rated A)	A (A sample that did not solidify in 10 days or more was rated A)	C (A sample that was maintained as a solution for a while (e.g., more than 30 minutes) but solidified in less than 24 hours was rated C)	A (A sample that did not solidify in 10 days or more was rated A)		
CC(=O)OCCCCCCCCOC(C)=O [1,8-Diacetoxyoctane]	A (A sample that did not solidify in 10 days or more was rated A)	C (A sample that was maintained as a solution for a while (e.g., more than 30 minutes) but solidified in less than 24 hours was rated C)	C (A sample that was maintained as a solution for a while (e.g., more than 30 minutes) but solidified in less than 24 hours was rated C)			ability to dissolve menthol (rating) ([1]; menthol concentration of 50%): A (A sample that did not solidify in 10 days or more was rated A)
CC(C)COC(=O)CCCCC(=O)OCC(C)C [Diisobutyl adipate]	A (A sample that did not solidify in 10 days or more was rated A)	A (A sample that did not solidify in 10 days or more was rated A)	A (A sample that did not solidify in 10 days or more was rated A)		A (A sample that did not solidify in 10 days or more was rated A)	Dissolution ([1]; l-Menthol 80, solvent 20 pbw): C (A sample that was maintained as a solution for a while (e.g., more than 30 minutes) but solidified in less than 24 hours was rated C)
CCOC(=O)CCCCCCCCC(=O)OCC [Diethyl sebacate]	A (A sample that did not solidify in 10 days or more was rated A)	A (A sample that did not solidify in 10 days or more was rated A)	A (A sample that did not solidify in 10 days or more was rated A)		A (A sample that did not solidify in 10 days or more was rated A)	Dissolution ([1]; l-Menthol 80, solvent 20 pbw): C (A sample that was maintained as a solution for a while (e.g., more than 30 minutes) but solidified in less than 24 hours was rated C); interfacial tension ([2]; samples containing 70 to 50 wt % l-menthol): ≥ 5 mN/m
CCOC(=O)/C=C/C(=O)OCC [Diethyl fumarate]	A (A sample that did not solidify in 10 days or more was rated A)	A (A sample that did not solidify in 10 days or more was rated A)	C (A sample that was maintained as a solution for a while (e.g., more than 30 minutes) but solidified in less than 24 hours was rated C)	A (A sample that did not solidify in 10 days or more was rated A)		
CCCCCCCCCC(=O)OCC [Ethyl decanoate]	A (A sample that did not solidify in 10 days or more was rated A)	A (A sample that did not solidify in 10 days or more was rated A)	C (A sample that was maintained as a solution for a while (e.g., more than 30 minutes) but solidified in less than 24 hours was rated C)	A (A sample that did not solidify in 10 days or more was rated A)		
CCCCCCCCCCCCCCCC(=O)OCC [Ethyl palmitate]	B (A sample that solidified in 24 hours or more but less than 10 days was rated B)	B (A sample that solidified in 24 hours or more but less than 10 days was rated B)	C (A sample that was maintained as a solution for a while (e.g., more than 30 minutes) but solidified in less than 24 hours was rated C)	B (A sample that solidified in 24 hours or more but less than 10 days was rated B)		
CCCC(=O)OCC(COC(=O)CCC)OC(=O)CCC [Tributyrin]	B (A sample that solidified in 24 hours or more but less than 10 days was rated B)	C (A sample that was maintained as a solution for a while (e.g., more than 30 minutes) but solidified in less than 24 hours was rated C)	C (A sample that was maintained as a solution for a while (e.g., more than 30 minutes) but solidified in less than 24 hours was rated C)			ability to dissolve menthol (rating) ([1]; menthol concentration of 50%): B (A sample that solidified in 24 hours or more but less than 10 days was rated B)
